Results published in patent US20230312700A1, “TREATMENT OF A DISEASE OF THE GASTROINTESTINAL TRACT WITH A TNF INHIBITOR” (Progenity, Inc., priority 2018, published 2023).

Assay: Example 10: tacrolimus tissue, plasma, rectal and GI content pharmacokinetics, oral vs intra-cecal ingestible device
Set-up: species or system Yorkshire-Cross farm swine
Details: female, Yorkshire-Cross, swine, in vivo, 0.09 mg/kg
Experimental: The primary objective of this study was to compare the tissue, plasma, rectal sample, and GI content pharmacokinetics of tacrolimus through oral versus intra-cecal ingestible device delivery in normal Yorkshire-Cross farm swine.
No further randomization procedure was employed.
Animals in Group 1 received an ingestible device containing 0.8 mL of vehicle solution (80% alcohol, 20% HCO-60). Animals in Group 2 received orally […] liquid formulation of tacrolimus at 4 mg/0.8 mL per animal (Prograf: 5 mg/mL). Animals in Group 3 received intra-cecally an ingestible device containing tacrolimus at 1 mg in 0.8 mL per ingestible device. […]
Approximately 200-400 mg of rectal content were collected, if available, with a fecal swab (Copan Diagnostics Nylon Flocked Dry Swabs, 502CS01). The fecal swab was pre-weighed and weighed after collection in the collection tube (Sterile Tube and Cap No Media, PFPM913S), and the sample weight was recorded. […]
For tissue necropsy, small intestine fluid and cecal fluid were collected separately from all the animals into two separate square plastic bottles, and stored at −20° C. The length and diameter of the cecum and the colon was measured from one animal in each group and recorded for reference. […] All samples were weighed, and the tissue sample weights were recorded. […]

concentration at 12 h: 4.38 ± 0.516 ng/mL
SMILES: C=CC[C@@H]1/C=C(\C)C[C@H](C)C[C@H](OC)[C@H]2O[C@@](O)(C(=O)C(=O)N3CCCC[C@H]3C(=O)O[C@H](/C(C)=C/[C@@H]3CC[C@@H](O)[C@H](OC)C3)[C@H](C)[C@@H](O)CC1=O)[C@H](C)C[C@@H]2OC [tacrolimus]
